Measured values from publication PMC6072251 (ACS Omega, 2018).
Converted amounts (≈) assume the structure as drawn. Read-outs that look alike come from different tables or passages of the source.

Legend:
[1] = system: S. mutans growth; assay: S. mutans growth inhibition assay; assay type: cell-based, Streptococcus mutans UA159; conditions: Streptococcus mutans, read-out: Growth MIC50
[2] = system: Gtfs; assay: Zymogram assay of Gtf enzymatic activity; assay type: biochemical, S. mutans UA159; conditions: compared to DMSO control
[3] = system: S. mutans UA159-induced dental caries; assay: Rat model of dental caries; assay type: in vivo, Fischer 344 rats; conditions: for bacterial colonization (cfu/mandible) / body weight over the course of the study: 100 μM twice daily for 4 weeks; for bacterial colonization (cfu/mandible): compared with control group treated with water; for body weight over the course of the study: in comparison with the control group; for oral tissue (mucosal and gingival tissues) at sacrifice: treated vs nontreated rats
[4] = system: S. mutans biofilm; assay: S. mutans biofilm formation and inhibition assay; assay type: cell-based, Streptococcus mutans UA159; conditions: for IC50: Streptococcus mutans
[5] = system: S. sanguinis; assay: Growth of commensal S. sanguinis; assay type: cell-based, Streptococcus sanguinis SK36
[6] = system: S. gordonii; assay: Growth of commensal S. gordonii; assay type: cell-based, Streptococcus gordonii DL1
[7] = system: S. mutans colonization; assay: Sucrose-dependent drosophila colonization model; assay type: in vivo; conditions: 50 μM, feeding assay, after 7 days of infection
[8] = system: S. mutans; assay: Cell viability / growth of S. mutans; assay type: cell-based

| Compound | MIC50 [1] [µM] | glucan production / Gtf inhibition in zymogram assay (in words) [2] | bacterial colonization (cfu/mandible) [3] | body weight over the course of the study [3] | oral tissue (mucosal and gingival tissues) at sacrifice [3] | IC50 ([4]; read-out: Biofilm IC50, S. mutans biofilm, NI: no inhibition) [µM] | decrease of cell density ([5]; S. sanguinis, at 400 μM) | inhibition at 52 µM ([5]; Streptococcus sanguinis, read-out: growth inhibited) [%] | decrease of cell density ([6]; S. gordonii, at 400 μM) | inhibition at 52 µM ([6]; Streptococcus gordonii, read-out: growth inhibited) [%] | fluorescence in the guts of flies fed Gfp-tagged S. mutans [7] | viability of the biofilms and the planktonic cells ([8]; S. mutans) | inhibition of cell viability ([8]; S. mutans, at 400 μM) [%] | inhibition at 52 µM ([8]; Streptococcus mutans, read-out: growth inhibited) [%] | IC50 ([4]; read-out: Biofilm IC50) [µM] | Selectivity ([4]; biofilm inhibition over growth inhibition of S. mutans) |
| --- | --- | --- | --- | --- | --- | --- | --- | --- | --- | --- | --- | --- | --- | --- | --- | --- |
| Oc1ccc(/C=C/c2cc(O)cc(O)c2)cc1 [Compound 7, resveratrol] | 546 ± 15.9 (≈ 125 µg/mL) | marginal inhibition | not statistically significant | did not lose weight | no obvious differences |  |  |  |  |  |  |  |  |  |  |  |
| Oc1cc(O)cc(/C=C/c2ccc(O)c(O)c2)c1 [Compound 8, piceatannol] | 564 ± 37.8 (≈ 138 µg/mL) | greatly reduced glucan production | not statistically significant | did not lose weight | no obvious differences | 52 ± 6 | 15–18% | < 10 | 15–18% | < 10 | significant decrease in fluorescence | not significantly impacted | 37 | < 10 |  |  |
| O=C(/C=C/c1ccc(O)c(O)c1)O[C@@H]1C[C@](O)(C(=O)O)C[C@@H](O)[C@H]1O [Compound 10] | 1720 ± 53 (≈ 611 µg/mL) |  |  |  |  |  |  |  |  |  |  |  |  |  | 518 ± 85 | 3.3 |
